Experimental data as given in EP4424699A1, “HBV CORE PROTEIN BINDING COMPOUNDS AND USES THEREOF” (Julius-Maximilians-Universität Würzburg, priority 2023, dated 2024).
Positions of bridges follow the written chain, without caps; N, C: chain ends. Non-standard residues stand in square brackets, D forms with d. Residues, ends and D or L forms follow the SMILES beside them. Chains are numbered I, II in the order given. AEEA = NCCOCCOCC(=O)O

Experiments:
[1] = molecular target: T1, HBc (Hepatitis B virus genotype D subtype ayw, UniProt P03146); assay: Turbidity assay of HBc solutions at 350 nm; conditions: 50 µM HBc solution, RT
T1 construct: Full length wild type (fl wt) HBc; made in house; host or cells: E. coli
Method: The concentrations of the P1-, P2- and SLLGRM-dimers were varied between 0.1-100 µM and the concentration of HBc kept constant at 10 µM for the P1- and P2-dimer and at 50 µM for the SLLGRM-dimer. All experiments were performed using a standard photometer (GENESYS™ UV/VIS spectral photometer, Thermo Fisher Scientific, Hillsboro, OR, USA) at RT and at a wavelength of 350 nm using disposable UV transparent cuvettes.

[2] = molecular target: T2, HBc capsids (Hepatitis B virus genotype D subtype ayw, UniProt P03146); assay: Cryo-EM of HBc capsids in complex with peptide dimers; assay type: binding; parameters: Full length wild type (fl wt) HBc; made in house; host or cells: E. coli; conditions: from EM-maps
Method: In a plasma cleaner (model PDC-002. Harrick Plasma, Ithaca, NY, USA) holey carbon grids (R1.2/1.3, 300 mesh Cu grids, Quantifoil Micro Tools, Jena, Germany) were made hydrophilic by plasma discharging. This was done at a pressure of 29 Pa for 2 minutes using ambient air as plasma medium at "medium power" of the instrument. First, solutions of purified HBc (200 µM) in complex with the P1dC- and the SLLGRM-dimer (each 400 µM) were prepared in buffer A and 3.5 µl aliquots of each sample were applied onto the grids. For plunge freezing of grids ethane was used as medium (liquefied by liquid nitrogen) with the help of a Vitrobot (mark IV, FEI Company, Hillsboro, OR, USA) using filter papers of Whatman (type 541). The Vitrobot had following settings: no wait and drain times, 6 s of blot time, blot force of 25 and a nominal humidity of 100 %. The frozen grids were stored in liquid nitrogen for at least one night before being used for image acquisition.
Cryo-EM was done as previously described (Makbul, Kraft, et al., 2021). In brief: Movies were acquired with the software EPU on a Krios G3 electron microscope equipped with a Falcon III camera (Thermo Fisher Scientific, Hillsboro, OR, USA) in linear mode at a magnification of 75,000 with an accelerating voltage of 300 kV. The total exposure was 40 e-/Å^2 and was fractionated across 20 fractions. […]

[3] = molecular target: T3, fl wt HBc capsids (Hepatitis B virus genotype D subtype ayw, UniProt P03146); assay: Isothermal titration calorimetry (ITC) of peptide dimers with HBc capsids; assay type: binding
T3 construct: Full length wild type (fl wt) HBc; made in house; host or cells: E. coli
Method: Binding stoichiometry, binding affinity and thermodynamic parameters were determined. Table 2 iTC200 instrument's specifications used for the interaction analysis between peptide-dimers and capsids.

[4] = physchem; conditions: buffer obtained from the dialysis of capsids (buffer A), pH 7.5, aqueous buffer
Method: Purified and pooled fractions (ca 8 ml) of capsids were filtered (Rotilabo syringe filter with a pore size of 220 nm, Carl Roth GmbH Co. KG, Karlsruhe, Germany), dialysed against 1.4 L buffer A (40 mM HEPES, 200 mM NaCl, 1 mM MgCl2, 1 mM CaCl2, pH 7.5) using a dialysis membrane tube (Spectra Por Biotech cellulose ester tube, 1 MDa MWCO, Spectrum Laboratories, Inc., Rancho Dominguez, CA, USA). The dialysis was performed at 4 °C under gentle stirring for 16 h overnight. Next day, the dialysed sample was removed from the dialysis tube and concentrated in a centrifuge using a concentrator (30 kDa MWCO Spin-X UF 6 mL, Corning Inc., Corning, NY, USA). Before the determination of the concentration by the Bradford assay (Roti Nanoquant, Carl Roth GmbH Co. KG, Karlsruhe, Germany) the concentrate was filtered (centrifugal filter unit Ultrafree MC, pore size of 100 nm, Merck KGaA, Darmstadt, Germany). The dimeric peptides were dissolved in the buffer obtained from the dialysis of capsids. […] Before filling the ITC cell and syringe, all samples were degassed for 10 minutes at 20 °C (ThermoVac, Malvern Panalytical, Malvern, Worcestershire, UK). Using a MicroCal iTC200 instrument (Malvern Panalytical, Malvern, Worcestershire, UK) solutions of dimeric peptides were titrated into solutions of capsids according to specifications in the Table 2. […]

[5] = molecular target: HBc's interaction to the surface protein L-HBs (Hepatitis B virus genotype D subtype ayw, UniProt P03146); conditions: result in words; cited from earlier work
[6] = test system: HBV production in Hep G2 human hepatoblastoma cell lines; conditions: cited from earlier work; for IC50: inhibition of HBV production
[7] = molecular target: T2, HBc capsids; conditions: monomeric peptides; cited from earlier work
[8] = molecular target: full-length wild type HBc (fl wt HBc) (Hepatitis B virus genotype D subtype ayw, UniProt P03146); conditions: result in words; cited from earlier work
[9] = molecular target: full length wild type HBV core protein (fl wt HBc), capsids (Hepatitis B virus (genotype D; strain ayw)) (UniProt P03146); assay: ITC KD of the dimer against the literature KD of monomeric SLLGRM
[10] = molecular target: full length wild type HBV core protein (fl wt HBc), capsids (Hepatitis B virus (genotype D; strain ayw)) (UniProt P03146); assay: cryo-EM maps of HBc capsids with bound dimer
[11] = molecular target: full length wild type HBV core protein (fl wt HBc), capsids (Hepatitis B virus (genotype D; strain ayw)) (UniProt P03146); assay: ITC, dimer titrated into fl wt HBc capsids, 20 °C, one site model

In the case of `CSCC[C@H](NC(=O)[C@H](CCCNC(=N)N)NC(=O)CNC(=O)[C@H](CC(C)C)NC(=O)[C@H](CC(C)C)NC(=O)[C@@H](N)CO)C(=O)NCCOCCOCC(=O)NCCOCCOCC(=O)NCCOCCOCC(=O)NCCOCCOCC(=O)NCCCC[C@@H](NC(=O)COCCOCCNC(=O)COCCOCCNC(=O)COCCOCCNC(=O)COCCOCCNC(=O)[C@H](CCSC)NC(=O)[C@H](CCCNC(=N)N)NC(=O)CNC(=O)[C@H](CC(C)C)NC(=O)[C@H](CC(C)C)NC(=O)[C@@H](N)CO)C(=O)O` [SLLGRM-dimer] (I: H-SLLGRM[AEEA][AEEA][AEEA][AEEA][dK]-OH / II: H-SLLGRM[AEEA][AEEA][AEEA][AEEA]; amide I:11-II:C; N-terminus and C-terminus assumed), the concentration inducing turbidity [1] is reported as “high micromolar concentrations”, the “molar ratio to HBc capsids” value [2] is reported as 0.25 and the “affinity increase over the respective monomers” value ([3]; KD of dimer versus KD of monomer) is reported as 26 fold. For the same molecule, the Ka ([3]; association constant, ITC at 20 °C, refers to monomeric HBc) was 208200 ±31284 (1)/(M), the ΔH ([3]; binding enthalpy, ITC) was -25.316 ± 2.748 kcal/mol and the ΔS ([3]; binding entropy, ITC) was -62 ±10 (cal)/(mol × K). For the same molecule, the N ([3]; stoichiometry, ITC at 20 °C, one site model, refers to monomeric HBc) was 0.145 ±0.023 and the solubility [4] was ≥ 8 mM.
For ALLGRMKG [21], the “inhibition of HBc's interaction to L-HBs” value [5] is given as “inhibited”.
For GSLLGRMKGA [Pep2], the “production HB viruses reduced to” value ([6]; at high micromolar concentrations) is given as “ca. 30%”, the IC50 [6] is given as 0.8 µM and the Kd [7] is given as 68 µM.
For LLGRMK, the “binding to fl wt HBc” value [8] is given as “bound”.
In the case of MHRSLLGRMKGA [Pep1], the Kd [7] is given as 26 µM.
For SLLGRM, the Kd [7] is listed as 130 µM.
SLLGRM-dimer (peptide) gave a fold affinity increase over the respective monomer [9] of 26 fold, a molar ratio [10] of 0.25 and a Kd [11] of 4.89 µM. The N (stoichiometry) [11] was 0.145, the binding enthalpy (ΔH) [11] was -25300 and the binding entropy (ΔS) [11] was -62.
For SLLGRMKG [23], the IC50 [6] is listed as 6.4 µM.
In the case of SLLGRMKGA [22], the IC50 [6] is given as 2.4 µM.
